Experimental data as given in BindingDB's records for doi:10.1016/j.bmcl.2017.09.009 (St. John'S University, 2017).
pIC50: −log10 of the molar value. Several values for one entry are separate records, joined by “and”; a condition that tells them apart may be missing. Equal values may be shown once.

Columns and labels:
[1] = molecular target: T1, Broad substrate specificity ATP-binding cassette transporter ABCG2 (Homo sapiens, UniProt Q9UNQ0); test: (§1) Inhibition of ABCG2 in human H460/MX20 cells assessed as potentiation of mitoxantrone induced antiproliferative activity by measuring mitoxantrone IC50 at 10 uM preincubated for 2 hrs followed by mitoxantrone addition measured after 72 hrs by MTT assay (Rvb = 6.161 +/- 0.172 microM)
T1 sequence (Q9UNQ0 whole entry): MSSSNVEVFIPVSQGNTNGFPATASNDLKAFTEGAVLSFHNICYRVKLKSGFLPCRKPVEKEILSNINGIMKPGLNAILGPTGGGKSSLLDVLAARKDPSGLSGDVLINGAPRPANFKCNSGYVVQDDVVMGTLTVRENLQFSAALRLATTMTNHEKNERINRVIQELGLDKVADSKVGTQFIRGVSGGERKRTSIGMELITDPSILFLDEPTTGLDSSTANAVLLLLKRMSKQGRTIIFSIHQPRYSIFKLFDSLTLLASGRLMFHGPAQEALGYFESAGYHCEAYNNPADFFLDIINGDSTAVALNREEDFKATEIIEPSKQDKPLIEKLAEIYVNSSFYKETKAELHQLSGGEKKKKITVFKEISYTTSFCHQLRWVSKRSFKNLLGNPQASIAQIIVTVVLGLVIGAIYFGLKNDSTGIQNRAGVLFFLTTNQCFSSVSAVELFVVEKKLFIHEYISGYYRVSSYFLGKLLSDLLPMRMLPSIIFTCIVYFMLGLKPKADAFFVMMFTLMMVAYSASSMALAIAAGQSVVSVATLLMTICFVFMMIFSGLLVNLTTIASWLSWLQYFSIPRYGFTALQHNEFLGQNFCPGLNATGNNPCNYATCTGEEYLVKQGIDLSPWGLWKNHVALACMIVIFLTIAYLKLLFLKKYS

[2] = Inhibition of ABCG2 in human H460/MX20 cells assessed as potentiation of mitoxantrone induced antiproliferative activity by measuring mitoxantrone IC50 at 3 uM preincubated for 2 hrs followed by mitoxantrone addition measured after 72 hrs by MTT assay (Rvb = 6.161 +/- 0.172 microM)
[3] = molecular target: T1, Broad substrate specificity ATP-binding cassette transporter ABCG2; test: ChEBML_1696291; method: as §1
[4] = Inhibition of ABCG2 in human H460/MX20 cells assessed as potentiation of mitoxantrone induced antiproliferative activity by measuring mitoxantrone IC50 at 10 uM preincubated for 2 hrs followed by mitoxantrone addition measured after 72 hrs by MTT assay (Rvb = 6.161 +/- 0.172 microM)
[5] = Inhibition of ABCG2 in human H460/MX20 cells assessed as potentiation of mitoxantrone induced antiproliferative activity by measuring mitoxantrone IC50 at 3 uM preincubated for 2 hrs followed by mitoxantrone addition measured after 72 hrs by MTT assay (Rvb = 6.161 +/- 0.172 microM); remark: listed apart in the source
[6] = Inhibition of ABCG2 in human H460/MX20 cells assessed as potentiation of mitoxantrone induced antiproliferative activity by measuring mitoxantrone IC50 at 1 uM preincubated for 2 hrs followed by mitoxantrone addition measured after 72 hrs by MTT assay (Rvb = 6.161 +/- 0.172 microM)
[7] = molecular target: T1, Broad substrate specificity ATP-binding cassette transporter ABCG2; test: Inhibition of ABCG2 in human H460/MX20 cells assessed as potentiation of mitoxantrone induced antiproliferative activity by measuring mitoxantrone IC50 at 3 uM preincubated for 2 hrs followed by mitoxantrone addition measured after 72 hrs by MTT assay (Rvb = 6.161 +/- 0.172 microM)

| Structure (SMILES) | pIC50 [2] | pIC50 [4] | pIC50 [6] | also measured |
| --- | --- | --- | --- | --- |
| COc1ccc(-n2nnc(-c3ccccc3NC(=O)Nc3ccc([N+](=O)[O-])cc3)n2)cc1 | 6.27 | – | – | pIC50 [1]: 6.48 |
| O=C(Nc1ccc([N+](=O)[O-])cc1)Nc1ccccc1C(=O)Nc1ccc(C(F)(F)F)cc1 | – | 6.34 | – | pIC50 [3]: 6.15 |
| COc1cccc(-n2nnc(-c3ccccc3NC(=O)c3ccc(NC(C)=O)cc3)n2)c1 | – | 5.92 | 5.87 | pIC50 [5]: 5.88 |
| COc1cccc(-n2nnc(-c3ccccc3NC(=O)c3ccc([N+](=O)[O-])cc3)n2)c1 | – | – | 6.23 | – |
| COc1cccc(-n2nnc(-c3ccccc3NC(=O)Nc3ccc(N)cc3)n2)c1 | – | 6.42 | 6.08 | – |
| COc1cccc(-n2nnc(-c3ccccc3NC(=O)Nc3ccc(NC(C)=O)cc3)n2)c1 | – | 6.49 | – | – |
| COc1cccc(-n2nnc(-c3ccccc3NC(=O)Nc3ccccc3[N+](=O)[O-])n2)c1 | 6.01 | 6.05 | – | – |
| CCCc1ccc(NC(=O)c2ccccc2NC(=O)Nc2ccc(OC)cc2)cc1 | – | – | 5.47 | pIC50 [1]: 6.01 |
| COc1ccc(C(=O)Nc2ccccc2-c2nnn(-c3ccc(OC)cc3)n2)cc1 | 6.30 | 6.31 | 6.13 | – |
| COc1ccc(-n2nnc(-c3ccccc3NC(=O)c3ccc([N+](=O)[O-])cc3)n2)cc1 | – | 6.42 | 6.23 | pIC50 [5]: 6.27 |
| COc1cccc(-n2nnc(-c3ccccc3NC(=O)Nc3ccc(N=[N+]=[N-])cc3)n2)c1 | – | – | 6.04 | – |
| COc1cccc(-n2nnc(-c3ccccc3NC(=O)Nc3ccc([N+](=O)[O-])cc3)n2)c1 | – | 6.39 | – | – |
| CCCc1ccc(NC(=O)c2ccccc2NC(=O)Nc2ccc([N+](=O)[O-])cc2)cc1 | 6.32 | – | 6.21 | – |
| CCCc1ccc(NC(=O)c2ccccc2NC(=O)Nc2ccc(Br)cc2)cc1 | – | – | 5.58 | pIC50 [7]: 5.67 |
| CCCc1ccc(C(=O)Nc2ccccc2-c2nnn(-c3cccc(OC)c3)n2)cc1 | – | 6.88 | – | – |
| COc1cccc(-n2nnc(-c3ccccc3NC(=O)c3ccc(N=[N+]=[N-])cc3)n2)c1 | 5.82 | – | 5.79 | – |
| CCCc1ccc(NC(=O)c2ccccc2NC(=O)c2ccc([N+](=O)[O-])cc2)cc1 | 6.11 | – | 6.08 | pIC50 [1]: 6.23 |
| COc1cccc(-n2nnc(-c3ccccc3NC(=O)c3ccc(NC(=O)CBr)cc3)n2)c1 | – | 6.55 | – | pIC50 [7]: 6.35 |
| CCCc1ccc(NC(=O)c2ccccc2NC(=O)Nc2ccccc2[N+](=O)[O-])cc1 | 5.59 | – | – | pIC50 [1]: 5.95 |
| COc1cccc(-n2nnc(-c3ccccc3NC(=O)c3ccc(N)cc3)n2)c1 | – | 6.52 | – | pIC50 [7]: 6.31 |
| CCCc1ccc(NC(=O)c2ccccc2NC(=O)c2ccc(OC)cc2)cc1 | – | 5.78 | – | – |
| COc1cccc(-n2nnc(-c3ccccc3NC(=O)Nc3ccc(N=C=S)cc3)n2)c1 | 6.18 | – | – | – |
| COc1cccc(-n2nnc(-c3ccccc3NC(=O)c3ccccc3[N+](=O)[O-])n2)c1 | – | – | – | pIC50 [1]: 5.96 |
| COc1ccc2c3c([nH]c2c1)[C@H](C=C(C)C)N1C(=O)[C@@H]2CCCN2C(=O)[C@@H]1C3 [Fumitremorgin C] | 6.35 | – | 6.21 | – |
| COc1cccc(-n2nnc(-c3ccccc3NC(=O)Nc3ccc(NC(=O)CBr)cc3)n2)c1 | – | – | 6.10 | pIC50 [1]: 6.33 |
| CCCc1ccc(NC(=O)c2ccccc2NC(=O)Nc2cccc([N+](=O)[O-])c2)cc1 | – | – | 6.19 | – |
| COc1cccc(-n2nnc(-c3ccccc3NC(=O)c3ccc(N=C=S)cc3)n2)c1 | 5.98 and 6.02 | – | – | – |
| COc1cccc(-n2nnc(-c3ccccc3NC(=O)c3cccc([N+](=O)[O-])c3)n2)c1 | – | – | 5.74 | – |
